Among the data in PMC9415646, “Improving Aqueous Solubility and In Vitro Pharmacokinetic Properties of the 3-Nitroimidazo[1,2-a]pyridine Antileishmanial Pharmacophore” (Pharmaceuticals, 2022) are EC50, CC50 and melting point values, retold here.

By EC50 is commonly meant the concentration at which the effect is half-maximal. The CC50 is the concentration that lowers cell viability or growth by half. Read a high CC50 as lower toxicity to the cells. A word on the melting point: it is the temperature, or range, at which the solid turns liquid.

Data set [1] relates to L. donovani promastigotes. In words: Antileishmanial activity against L. donovani promastigotes (MTT assay). Conditions: Leishmania donovani, 72 h, read-out: EC50 L. donovani Pro. Type of data set: cell-based. As to the method: The Leishmania species used in this study were L. donovani (MHOM/IN/00/DEVI) purchased from CNR Leishmania (Montpellier, France). Leishmania promastigote forms were grown in Schneider’s Drosophila medium (Life Technologies, Saint-Aubin, France) supplemented with 100 U/mL penicillin, 100 µg/mL streptomycin, 2 mM L-glutamine and 20% FCS (Life Technologies, Saint-Aubin, France) at 27 °C. The in vitro evaluation of the tested compound’s antileishmanial activity on promastigote forms was carried out by MTT assay according to the Mosmann protocol with some modifications. Briefly, promastigotes in log-phase were incubated at an average density of 10^6 parasites/mL in sterile 96-well plates with various concentrations of compound dissolved in DMSO (final concentration less than 0.5% v/v), in duplicate. Appropriate controls treated with DMSO, Miltefosine, Amphotericin B, Fexinidazole, and Fexinidazole sulfone (reference drugs purchased from Sigma-Aldrich, Saint-Louis, Missouri, USA) were added to each set of experiments. After a 72 h incubation period at 27 °C, parasitic metabolic activity was determined. Each plate-well was then microscope-analyzed to detect any precipitate formation. 20 µL of MTT (3-(4,5-dimethylthiazol-2-yl)-2,5-diphenyltetrazolium bromide) (Sigma-Aldrich, Saint-Louis, Missouri, USA) solution (5 mg/mL in PBS) were added to each well and incubated for 4 h at 27 °C. The enzyme reaction was then stopped by addition of 100 µL of 50% isopropanol–10% sodium dodecyl sulfate. Plates were shaken vigorously at 300 rpm for 10 min. The absorbance was measured at 570 nm in a BIO-TEK Elx808 (Biotek, Colmar, France) absorbance microplate reader. […] EC50 values were calculated by non-linear regression analysis processed dose-response curves, using TableCurve 2D V5.0 software (Systat Software Inc. (Palo Alto, CA, USA)). EC50 values represent the mean value calculated from at least three separate experiments.
For orientation: Tetrazolium assays rely on reduction of a dye to a coloured formazan, in cell work by metabolically active cells.

The subject of data set [2] is L. infantum promastigotes. In words: Antileishmanial activity against L. infantum promastigotes (luciferase assay). Type of data set: cell-based. Conditions: Leishmania infantum, 72 h, read-out: EC50 L. infantum Pro. The procedure:
L. infantum promastigotes (MHOM/MA/67/ITMAP-263, CNR Leishmania, Montpellier, France, expressing luciferase activity) were used in the following tests. The effects of the tested compounds on the growth of L. infantum promastigotes were assessed by Luciferase Assay. Briefly, promastigotes in log-phase in RPMI 1640 medium supplemented with 10% fetal calf serum (FCS), 2 mM L-glutamine and antibiotics (100U/mL penicillin, 100 µg/mL streptomycin and 50µg/mL geneticin), were incubated at an average density of 10^6 parasites/mL (100 µL/well) in sterile 96-well plates with various concentrations of compounds dissolved in DMSO (final concentration less than 0.5% v/v), in duplicate. Appropriate controls (100 µL/well) treated by DMSO and reference drugs (purchased for the majority from Sigma Aldrich) were added to each set of experiments. After a 72 h incubation period at 24 °C, each plate-well was then microscope-examined for detecting possible precipitate formation. To estimate the luciferase activities of promastigotes, 80 µL of each well are transferred in white 96-well plates, Steady Glow reagent (Promega) was added according to manufacter’s instructions, and plates were incubated for 2 min. The luminescence was measured in a FLUOstar Omega (BMG Labtech, Champigny-sur-Marne, France). […] EC50 were calculated by non-linear regression analysis processed on dose–response curves, using TableCurve 2D V5 software.

In data set [3] the test system is L. infantum axenic amastigotes. In words: Antileishmanial activity on L. infantum axenic amastigotes (luciferase assay). Type of data set: cell-based. Conditions: Leishmania infantum, 48 h, read-out: EC50 L. infantum Axenic Ama. As to the method:
L. infantum promastigotes were harvested in logarithmic phase of growth by centrifugation at 900× g for 10 min. The supernatant was removed carefully and was replaced by the same volume of RPMI 1640 complete medium at pH 5.4 and incubated for 24 h at 24 °C. The acidified promastigotes were then incubated for 24 h at 37 °C in a ventilated flask to transform them into axenic amastigotes. The amastigote stage was checked both by electron microscopy (short flagellum with small bulbous tip extending beyond a spherical cell body) and RT-PCR to confirm the overexpression of ATG8 and amastin genes in amastigotes, relative to promastigotes. The effects of the tested compounds on the growth of L. infantum axenic amastigotes were assessed as follows. L. infantum amastigotes were incubated at a density of 2 × 10^6 parasites/mL in sterile 96-well plates with various concentrations of compounds dissolved in DMSO (final concentration less than 0.5% v/v), in duplicate. Appropriate controls treated with DMSO, amphotericin B, miltefosine, fexinidazole and fexinidazole sulfone were added to each set of experiments. After a 48 h incubation period at 37 °C, each plate-well was then microscopically examined to detect any precipitate formation.
(§1) • Luciferase activity and determination of EC50 were performed as above.

The nature of data set [4]: Cytotoxicity evaluation on HepG2 cell line (MTT). Format: cell-based. The conditions noted are these: human, HepG2 cells. As to the method: The tested molecules’ cytotoxicity was assessed according to the method of Mosmann with slight modifications. […] Triplicate assays were performed for each sample. Each plate-well was then microscope-examined to detect possible precipitate formation before the medium was aspirated from the wells. 100 µL of MTT (3-(4,5-dimethyl-2-thiazolyl)-2,5-diphenyl-2H-tetrazolium bromide) solution (0.5 mg/mL in medium without FCS) were then added to each well. […] Plates were shaken vigorously (700 rpm) for 10 min. The absorbance was measured at 570 nm with 630 nm as reference wavelength using a BIO-TEK ELx808 Absorbance Microplate Reader. DMSO was used as blank and doxorubicin (purchased from Sigma Aldrich) as positive control. Cell viability was calculated as percentage of control (cells incubated without compound). […] (Palo Alto, CA, USA)). CC50 values represent the mean value calculated from three separate experiments.

A short description of data set [5]: Cytotoxicity on THP-1 cell line (MTT). The conditions noted are these: human, THP-1 cells, THP1 cell line. Type of data set: cell-based. As to the method:
The plates were incubated for 72 h at 37 °C. Each well plate was then microscope-examined for detecting possible precipitate formation before the medium was aspirated from the wells. 100 µL of MTT solution (0.5 mg/mL in medium) were then added to each well. Cells were incubated for 2 h at 37 °C. […] Plates were shaken vigorously (300 rpm) for 10 min. The absorbance was measured at 570 nm using a BIO-TEK ELx808 Absorbance Microplate Reader. DMSO was used as blank and doxorubicin (purchased from Sigma Aldrich) as positive control. Cell viability was calculated as percentage of control (cells incubated with DMSO). […] (Palo Alto, CA, USA). CC50 values represent the mean value calculated from three separate experiments.

Data set [6] concerns T. b. brucei BSF trypomastigotes. In words: Antitrypanosomal evaluation on T. b. brucei BSF trypomastigotes (Alamar Blue). Type of data set: cell-based. Conditions: Trypanosoma brucei, trypomastigote blood stream form. As to the method:
The effects of the tested compounds on the growth of T. b. brucei were assessed by Alamar Blue® assay described by Räz et al. T. b. brucei AnTat 1.9 (IMTA, Antwerpen, Belgium) was cultured in MEM with Earle’s salts, supplemented according to the protocol of Baltz et al. with the following modifications: 0.5 mM mercaptoethanol (Sigma Aldrich®, France), 1.5 mM L-cysteine (Sigma Aldrich®), 0.05 mM bathocuproïne sulfate (Sigma Aldrich®) and 20% heat-inactivated horse serum (Gibco®, France), at 37 °C and 5% CO2. They were incubated at an average density of 2000 parasites/100 µL in sterile 96-wells plates (Fisher®, France) with various concentrations of compounds dissolved in DMSO, in duplicate. Appropriate controls suramin, treated with sterile water, and fexinidazole, treated with DMSO on sterile water (reference drugs purchased from Sigma Aldrich, France and Fluorochem, UK) were added to each set of experiments. After a 69 h incubation period at 37 °C, 10 µL of the viability marker Alamar Blue® (Fisher, France) were then added to each well, and the plates were incubated for 5 h. The plates were read in a ENSPIRE microplate reader (PerkinElmer, Waltham, MA, USA) using an excitation wavelength of 530 nm and an emission wavelength of 590 nm. […] EC50 were calculated by nonlinear regression analysis processed on dose-response curves, using GraphPad Prism software (USA). EC50 values were calculated from three separate experiments.
For orientation: The colour change of resazurin is a common sign of viable cells or microbes.

Data set [7] relates to L. infantum intracellular amastigotes. In words: Antileishmanial activity on L. infantum intracellular (intra-THP1 macrophage) amastigotes. Type of data set: cell-based. The conditions noted are these: Leishmania infantum, THP-1; intramacrophage (THP1) amastigotes, 120 h; read-out: EC50 L. infantum Intra. Ama. The procedure:
The undifferentiated THP1 human monocyte cells (acute monocytic leukemia cell line purchased from ATCC, ref TIB-202) were grown in RPMI 1640 medium (Life Technologies, Saint-Aubin, France) supplemented with 10% FCS (Life Technologies, Saint-Aubin, France), 100 U/mL penicillin, 100 µg/mL streptomycin and 2 mM L-glutamine at 37 °C, 5% CO2. The culture was maintained between 3.10^5 and 1.10^6 cells/mL. The in vitro evaluation of the antileishmanial activity on intracellular amastigote forms of the tested compound was assessed as below.
Briefly, 200 μL of THP-1 cells with Phorbol 12-Myristate 13-Acetate (final concentration 50 ng/mL) were seeded in 96-well plates at an average density of 0.77 × 10^5 cells/mL and incubated for 96 h at 37 °C, 5% CO2. Promastigotes were centrifuged at 3000 rpm for 10 min and the supernatant replaced by the same volume of complete RPMI pH 5.4 and incubated for 24 h at 27 °C. Differentiated THP-1 cells were then infected by acidified promastigotes with an infection ratio of twenty parasites for one macrophage and incubated for 24 h at 37 °C, 5% CO2.
as §1

The structures appear in SMILES notation. Like-named read-outs stand apart in the source and are kept apart here.

For `O=[N+]([O-])c1c(CS(=O)(=O)c2ccc(O)cc2)nc2c(Br)cc(Cl)cn12` [Compound 2c, 4-{[(8-Bromo-6-Chloro-3-Nitroimidazo[1,2-a]pyridin-2-yl)methyl]sulfonyl}phenol], the melting point was 242 °C. Besides, the EC50 in data set [1] (promastigotes, MTT) was above 3.1 µM. Further, the EC50 in data set [2] is above 100 µM. For the same molecule, in data set [3], the EC50 was above 5 µM. The molecule further returned a CC50 at 72 h in data set [4] above 3.9 µM. This molecule also displayed a CC50 at 72 h in data set [5] above 100 µM. This molecule displayed an EC50 in data set [6] of 0.4 ± 0.03 µM.

Take `Cn1c([N+](=O)[O-])cnc1COc1ccc(S(C)(=O)=O)cc1` [Fexinidazole sulfone, reference compound]: the EC50 was determined as 1.2 ± 0.2 µM in data set [1] (promastigotes, MTT); 1.1 ± 0.1 µM in data set [2]; 4.3 ± 0.1 µM in data set [3]; 17.8 ± 1.4 µM in data set [7]. In data set [5], this molecule showed a half-maximal cytotoxic concentration (CC50) at 72 h above 100 µM.

Turning to `O=[N+]([O-])c1c(CS(=O)(=O)CCC(F)(F)F)nc2c([S+]([O-])c3ccc(Cl)cc3)cc(Cl)cn12` (stereo not drawn) [Compound 6a, 6-Chloro-8-[(4-Chlorophenyl)sulfinyl]-3-Nitro-2-[(3,3,3-Trifluoropropylsulfonyl)methyl] imidazo[1,2-a]pyridine], the melting point came to 221 °C. The EC50 in data set [1] (promastigotes, MTT) amounted to 1.9 ± 0.3 µM. Also, the concentration giving a half-maximal response (EC50) in data set [2] is 7.4 ± 0.4 µM. For the same molecule, the EC50 in data set [3] is 5 ± 0.1 µM. Also, the EC50 in data set [7] was found to be 3.3 ± 0.2 µM. The CC50 at 72 h in data set [4] is above 5 µM. Further, the CC50 at 72 h in data set [5] is above 100 µM.

Take `CCCCCCCCCCCCCCCCOP(=O)([O-])OCC[N+](C)(C)C` [Miltefosine, reference compound]: the EC50 in data set [2] was 18.2 ± 0.5 µM; in data set [3] it was 0.3 ± 0.02 µM; in data set [7], 0.4 ± 0.14 µM. The molecule further came in with a CC50 at 72 h in data set [5] of 28.1 ± 3.4 µM.

Regarding `Cc1ccc(C(=O)Nc2ccc(S(=O)(=O)O)c3cc(S(=O)(=O)O)cc(S(=O)(=O)O)c23)cc1NC(=O)c1cccc(NC(=O)Nc2cccc(C(=O)Nc3cc(C(=O)Nc4ccc(S(=O)(=O)O)c5cc(S(=O)(=O)O)cc(S(=O)(=O)O)c45)ccc3C)c2)c1` [Suramin, reference compound], the CC50 at 72 h in data set [4] was above 100 µM. In data set [6], this molecule gave an EC50 of 0.08 ± 0.04 µM.

Consider `C[C@@H]1[C@H](O)[C@@H](C)/C=C/C=C/C=C/C=C/C=C/C=C/C=C/[C@H](O[C@@H]2O[C@H](C)[C@@H](O)[C@H](N)[C@@H]2O)C[C@@H]2O[C@](O)(C[C@@H](O)C[C@@H](O)[C@H](O)CC[C@@H](O)C[C@@H](O)CC(=O)O[C@H]1C)C[C@H](O)[C@H]2C(=O)O` [Amphotericin B, reference compound], for which the EC50 in data set [1] is 0.07 ± 0.01 µM; in data set [2], 0.04 ± 0.01 µM; in data set [3], 0.08 ± 0.02 µM; in data set [7] it was 0.06 ± 0.01 µM. The molecule also showed a CC50 at 72 h in data set [5] of 12.1 ± 1.3 µM.
